According to the supplement of paper PMC6045584:
± gives the standard deviation of the averaged measurements.

What was measured:
[1] = compound: CS(=O)(=O)c1ccc(C(=O)Nc2ccc(Cl)c(-c3ccccn3)c2)c(Cl)c1 [VISMODEGIB]; experiment: surviving fraction relative to DMSO-only wells; higher = less growth inhibition; conditions: exposure time: 5 days
Method in brief: (§1)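 Inhibitors at 0.5, 1, 5, 10, 50, 100, 500 and 1000 nM were applied continuously for five days to tumour cell lines seeded in log phase at 250–500 cells per well in 384-well plates 24 hours earlier. Viability was measured by CellTiter-Glo luminescence and expressed as surviving fraction relative to the median of DMSO-only wells. Luminescence was taken after 10 minutes at room temperature.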

[2] = compound: O=c1[nH]cc(F)c(=O)[nH]1 [FLUOROURACIL]; experiment: as above; conditions: exposure time: 5 days
Method in brief: as §1

Test System | surviving fraction ([1]; 0.5 nM) | surviving fraction ([1]; 1 nM) | surviving fraction ([1]; 5 nM) | surviving fraction ([1]; 10 nM) | surviving fraction ([1]; 50 nM) | surviving fraction ([1]; 100 nM) | surviving fraction ([1]; 500 nM) | surviving fraction ([1]; 1000 nM) | surviving fraction ([2]; 0.5 nM) | surviving fraction ([2]; 1 nM) | surviving fraction ([2]; 5 nM) | surviving fraction ([2]; 10 nM) | surviving fraction ([2]; 50 nM) | surviving fraction ([2]; 100 nM) | surviving fraction ([2]; 500 nM) | surviving fraction ([2]; 1000 nM)
HMT3552 BREAST | 1.07 | 1.02 | 1.05 | 1.06 | 0.804 | 1.16 | 0.925 | 0.937 | 0.951 ± 0.044 | 0.925 ± 0.085 | 0.976 ± 0.08 | 0.85 ± 0.048 | 1.01 ± 0.036 | 0.89 ± 0.02 | 0.939 ± 0.1 | 0.536 ± 0.033
HS578T BREAST | 0.936 ± 0.14 | 0.934 ± 0.077 | 1.05 ± 0.062 | 0.964 ± 0.069 | 0.871 ± 0.11 | 0.881 ± 0.051 | 0.913 ± 0.15 | 0.983 ± 0.15 | 0.839 ± 0.2 | 1.04 ± 0.043 | 0.904 ± 0.054 | 0.856 ± 0.1 | 0.902 ± 0.19 | 0.817 ± 0.15 | 0.793 ± 0.071 | 0.708 ± 0.041
HMLE3 BREAST | 0.911 ± 0.11 | 0.929 ± 0.037 | 1 ± 0.03 | 0.949 ± 0.013 | 0.882 ± 0.096 | 0.969 ± 0.038 | 0.882 ± 0.15 | 0.893 ± 0.11 | 1.05 ± 0.097 | 1.11 ± 0.03 | 1.09 ± 0.15 | 1.13 ± 0.043 | 1.06 ± 0.091 | 0.955 ± 0.065 | 0.838 ± 0.034 | 0.702 ± 0.15
HCC70 BREAST | 0.977 ± 0.041 | 0.964 ± 0.067 | 1.14 ± 0.055 | 1.11 ± 0.012 | 1.11 ± 0.084 | 1.12 ± 0.048 | 1.04 ± 0.037 | 1.1 ± 0.026 | 1.06 ± 0.054 | 1.08 ± 0.12 | 1.14 ± 0.083 | 1.12 ± 0.028 | 1.04 ± 0.092 | 1.03 ± 0.06 | 0.778 ± 0.047 | 0.735 ± 0.053
G292 BONE | 0.963 ± 0.032 | 0.989 ± 0.018 | 1.01 ± 0.057 | 0.96 ± 0.016 | 0.959 ± 0.049 | 0.975 ± 0.019 | 0.927 ± 0.061 | 0.932 ± 0.014 | 0.993 ± 0.028 | 0.965 ± 0.051 | 1.02 ± 0.037 | 1.01 ± 0.03 | 0.994 ± 0.051 | 0.939 ± 0.027 | 0.941 ± 0.017 | 0.759 ± 0.054
HCC38 BREAST | 0.743 ± 0.17 | 0.928 ± 0.2 | 0.895 ± 0.31 | 1.12 ± 0.38 | 0.668 ± 0.12 | 0.677 ± 0.24 | 0.743 ± 0.24 | 0.609 ± 0.11 | 1.01 ± 0.2 | 0.97 ± 0.11 | 1.02 ± 0.17 | 1.11 ± 0.14 | 0.8 ± 0.092 | 0.727 ± 0.14 | 0.689 ± 0.027 | 0.644 ± 0.097
HS57T BREAST | 0.986 ± 0.066 | 0.987 ± 0.04 | 1.01 ± 0.062 | 1.04 ± 0.055 | 1.04 ± 0.028 | 0.959 ± 0.038 | 0.991 ± 0.037 | 0.978 ± 0.021 | 1.02 ± 0.026 | 1.04 ± 0.086 | 1.07 ± 0.056 | 0.995 ± 0.044 | 0.972 ± 0.044 | 1 ± 0.041 | 0.926 ± 0.059 | 0.734 ± 0.061
